How the values were obtained:
[1] = ALA content over storage time in nanoemulsion formulation; format: physicochemical; conditions: in BF200 with PX=2%, 3% 5-ALA; after 36 months storage at 2-25° C.
Procedure: Nanoemulsion formulations BF200 PX=2% glass and BF200 PX=2% foam were prepared as described in Example 5. The nanoemulsion formulations were stored at 25° C. and 2-8° C. The content of ALA was determined at 0 (starting point) and various time points during the 36 months storage period.

[2] = TC content over storage time in nanoemulsion formulation; format: physicochemical; conditions: in BF220 with PX=4%, 0.1% TC
Procedure: Nanoemulsion formulations BF220 TC=0.1% glass and BF220 TC=0.1% foam were prepared as described in Example 6. The nanoemulsion formulations were stored at 2-8° C. and 25° C. The content of TC was determined at 0 (starting point) and various time points up to 48 months storage period.

[3] = room temperature; cited from earlier work

ALA content [1]	TC content ([2]; after 6 months at 25° C.)	TC content ([2]; after 48 months storage at 2-8° C.)	SMILES	stability in aqueous formulations [3]
at least 90%	–	–	NCC(=O)CCC(=O)O [ALA, 5-aminolevulinic acid]	–
–	at least 95%	at least 95%	C=CC[C@@H]1/C=C(\C)C[C@H](C)C[C@H](OC)[C@H]2O[C@@](O)(C(=O)C(=O)N3CCCC[C@H]3C(=O)O[C@H](/C(C)=C/[C@@H]3CC[C@@H](O)[C@H](OC)C3)[C@H](C)[C@@H](O)CC1=O)[C@H](C)C[C@@H]2OC [TC, Tacrolimus]	approx. 90 days

Source: patent publication US20260151486A1, “PRESSURIZED NANOEMULSION” (BIOFRONTERA BIOSCIENCE GMBH, priority 2023, published 2026)
